# Read-outs that look alike come from different tables or passages of the source.
# Legend:
# Coronavirus infection = settings: cited from earlier work
# [1] = cited from earlier work
# Solubility studies = format: physicochemical
# Protocol: The solubility of BHALys[Lys]2[Lys]4[Lys]8[Lys]16[Lys]32[(α-NH-3′ O-Glu-Remdesivir)32(ε-NH-COPEG2000)32] RHa-3 in water was determined to be ≥200 mg/mL (or ≥43.6 mg/mL Remdesivir RHa-1) by adding water (250 μL) to 50.0 mg of BHALys [Lys]2[Lys]4[Lys]8[Lys]16[Lys]32[(α-NH-3′ O-Glu-Remdesivir)32(ε-NH-COPEG2000)32] and swirling briefly. After 2 min, the resulting solution was visually inspected for particulates and found to be a clear solution (see FIG. 2). Solutions shown are 40 mg/ml Remdesivir equivalents (equivalent to 200 mg/ml of conjugate RHa-3).
# The solubility of BHALys[Lys]2[Lys]4[Lys]8[Lys]16[Lys]32[(α-NH-6N-TDA-Remdesivir)32(ε-NH-COPEG2000)32] RHa-5, in EtOH:Water (1:9 v/v) was determined to be ≥543 mg/mL (or ≥107 mg/mL Remdesivir RHa-1) by adding water EtOH:Water (1:9 v/v, 400 μL) to 380 mg of RHa-5. The mixture was swirled briefly and left to stand at rt. After 1.5 h the resulting solution (volume recorded=700 μL) was visually inspected for particulates and found to be a clear solution.
# The solubility of BHALys[Lys]2[Lys]4[Lys]8[Lys]16[Lys]32[(α-NH-6N-TDA-Remdesivir)32(ε-NH-COPEG1000)32] RHa-17 in EtOH:Water (1:9 v/v) was determined to be ≥354* mg/mL (or ≥85 mg/mL Remdesivir RHa-1) by adding EtOH:Water (1:9 v/v, 958 μL) portionwise to 525 mg of RHa-17, over a period of 1.5 h with intermittent swirling. The resulting solution was visually inspected for particulates and found to be a clear solution.
# (*Total volume not recorded. Assumes 1 mg construct contributes to 1 μL of final solution (i.e., total volume of final solution=1483 μL)).
# [2] = Release of Remdesivir in PBS buffer (Release Method 1); format: physicochemical; settings: PBS buffer with 10% v/v DMSO, pH 7.4, 37° C.
# Protocol: Release Method 1: An accurately weighed amount of the Remdesivir-dendrimer (10 mg) construct was dissolved in pH 7.4 PBS buffer:DMSO (9:1 v/v) and the volume made up to 20.0 mL in a volumetric flask to give a 0.5 mg/mL stock solution. The stock solution was aliquoted into several 2 mL screw-cap vials, the caps fitted and the vials heated at 37° C. The aliquoted solutions were analyzed at different time points by HPLC (HPLC Method 3). The concentration of Remdesivir RHa-1 was calculated by comparing the area under the peak associated with Remdesivir RHa-1 to a standard curve in MeCN:DMSO (9:1, v/v). The percentage of Remdesivir RHa-1 released is the percentage of available Remdesivir RHa-1 based on the loading of the construct as determined by ^1H NMR analysis (API Loading Method 1).
# The extent to which the Remdesivir RHa-1 was released over time in PBS buffer (with 10% v/v DMSO) (pH 7.4) at 37° C. was determined for 5 constructs, RHa-17, RHa-15, RHa-11, RHa-5 and RHa-3 (Release Method 1) over 120 hours.
# Trace amounts of other components were also observed (presumed to be degradation products of Remdesivir RHa-1). The area under the resolvable (separated) peaks associated with these degradants was also added to the peak area associated with released Remdesivir RHa-1.
# BHALys [Lys]2[Lys]4[Lys]8[Lys]16[Lys]32[(α-NH-6N-TDA-Remdesivir)32(ε-NH-COPEG2000)32] RHa-5 contained 1.77% free Remdesivir RHa-1 at t=0 min. The value of released Remdesivir RHa-1 shown in FIG. 3 has been adjusted to take this into account.
# [3] = Viscosity measurements (Viscosity Method 1); format: physicochemical; settings: 50 mg/mL Remdesivir equivalents in EtOH: Water (1:9 v/v)
# Protocol: Viscosities were measured on Anton Paar ViscoQC300 Viscometer using CC-12 cup.
# Viscosity Method 1: A reference standard solution (Standard Type: RT500, CAS No. 63148-62-9, Paragon Scientific Ltd) was first recorded and found to be within the range of reported value (at 20° C.: found 556.6 cP, theoretical 551.0 cP; at 25° C.: found 503.3 cP, theoretical 498.6 cP). Accurately weighed quantities of respective conjugates were dissolved in EtOH:Water […] to make a 50 mg/mL Remdesivir equivalent solution (total volume 2.30-2.40 mL) and the viscosity of the solution was recorded at 20° C. and 25° C.
# Viscosities of 2 formulations containing either RHa-5 or RHa-17 in EtOH: Water (1:9 v/v) were measured using Viscosity Method 1
compound,measurement,setting,value
"CCC(CC)COC(=O)[C@H](C)N[P@](=O)(OC[C@H]1O[C@@](C#N)(c2ccc3c(N)ncnn23)[C@H](O)[C@@H]1O)Oc1ccccc1 [RDV, 2-Ethylbutyl (2S)-2-{[(S)-{[(2R,3S,4R,5R)-5-(4-aminopyrrolo[2,1-f][1,2,4]triazin-7-yl)-5-cyano-3,4-dihydroxytetrahydrofuran-2-yl]methoxy}(phenoxy)phosphoryl]amino}propanoate]","Clinical recovery, figure in parentheses (share of patients)","Coronavirus infection; 5-Day RDV, n = 200, Day 14",(65)
same,"Clinical recovery, patients","Coronavirus infection; 5-Day RDV, n = 200, Day 14",129
same,"Death, figure in parentheses (share of patients)","Coronavirus infection; 5-Day RDV, n = 200, Day 14",(8)
same,"Death, patients","Coronavirus infection; 5-Day RDV, n = 200, Day 14",16
same,"Discharge, figure in parentheses (share of patients)","Coronavirus infection; 5-Day RDV, n = 200, Day 14",(60)
same,"Discharge, patients","Coronavirus infection; 5-Day RDV, n = 200, Day 14",120
same,"≥ 2-point improvement in ordinal scale, figure in parentheses (share of patients)","Coronavirus infection; 5-Day RDV, n = 200, Day 14",(65)
same,"≥ 2-point improvement in ordinal scale, patients","Coronavirus infection; 5-Day RDV, n = 200, Day 14",129
same,"AE leading to discontinuation, figure in parentheses (share of patients)","Coronavirus infection; 5-Day RDV, n = 200",(5)
same,"AE leading to discontinuation, patients","Coronavirus infection; 5-Day RDV, n = 200",9
same,"Any adverse event (AE), figure in parentheses (share of patients)","Coronavirus infection; 5-Day RDV, n = 200",(71)
same,"Any adverse event (AE), patients","Coronavirus infection; 5-Day RDV, n = 200",141
same,"Grade ≥ 3 study drug-related AE, figure in parentheses (share of patients)","Coronavirus infection; 5-Day RDV, n = 200",(4)
same,"Grade ≥ 3 study drug-related AE, patients","Coronavirus infection; 5-Day RDV, n = 200",8
same,"Study drug-related serious adverse event (SAE), figure in parentheses (share of patients)","Coronavirus infection; 5-Day RDV, n = 200",(2)
same,"Study drug-related serious adverse event (SAE), patients","Coronavirus infection; 5-Day RDV, n = 200",3
same,Time to clinical improvement for 50% of patients,Coronavirus infection; 5-day treatment group,10 days
same,"Clinical recovery, figure in parentheses (share of patients)","Coronavirus infection; 10-Day RDV, n = 197, Day 14",(54)
same,"Clinical recovery, patients","Coronavirus infection; 10-Day RDV, n = 197, Day 14",106
same,"Death, figure in parentheses (share of patients)","Coronavirus infection; 10-Day RDV, n = 197, Day 14",(11)
same,"Death, patients","Coronavirus infection; 10-Day RDV, n = 197, Day 14",21
same,"Discharge, figure in parentheses (share of patients)","Coronavirus infection; 10-Day RDV, n = 197, Day 14",(52)
same,"Discharge, patients","Coronavirus infection; 10-Day RDV, n = 197, Day 14",103
same,"≥ 2-point improvement in ordinal scale, figure in parentheses (share of patients)","Coronavirus infection; 10-Day RDV, n = 197, Day 14",(54)
same,"≥ 2-point improvement in ordinal scale, patients","Coronavirus infection; 10-Day RDV, n = 197, Day 14",107
same,"AE leading to discontinuation, figure in parentheses (share of patients)","Coronavirus infection; 10-Day RDV, n = 197",(10)
same,"AE leading to discontinuation, patients","Coronavirus infection; 10-Day RDV, n = 197",20
same,"Any adverse event (AE), figure in parentheses (share of patients)","Coronavirus infection; 10-Day RDV, n = 197",(74)
same,"Any adverse event (AE), patients","Coronavirus infection; 10-Day RDV, n = 197",145
same,"Grade ≥ 3 study drug-related AE, figure in parentheses (share of patients)","Coronavirus infection; 10-Day RDV, n = 197",(5)
same,"Grade ≥ 3 study drug-related AE, patients","Coronavirus infection; 10-Day RDV, n = 197",10
same,"Study drug-related serious adverse event (SAE), figure in parentheses (share of patients)","Coronavirus infection; 10-Day RDV, n = 197",(2)
same,"Study drug-related serious adverse event (SAE), patients","Coronavirus infection; 10-Day RDV, n = 197",4
same,Time to clinical improvement for 50% of patients,Coronavirus infection; 10-day treatment group,11 days
same,Cmax,[1]; after 200 mg dose of Remdesivir,5440 ng/mL
same,Median terminal half-life,"[1]; human, in vivo",approximately 1 hours
same,Plasma half-life,"[1]; in vivo, iv",approximately 1 hour
same,Appearance in water at 40 mg/mL,"Solubility studies; water, 40 mg/mL, FIG. 2",suspension
BHALys[Lys]2[Lys]4[Lys]8[Lys]16[Lys]32[(α-NH-3′O-TDA-Remdesivir)32(ε-NH-COPEG2000)32] [RHa-15],Approx. Time taken for 50% Remdesivir release,[2],~9 h
BHALys[Lys]2[Lys]4[Lys]8[Lys]16[Lys]32[(α-NH-6N-TDA-Remdesivir)32(ε-NH-COPEG2000)32] [RHa-5],Solubility in EtOH:Water (1:9 v/v),"Solubility studies; EtOH:Water (1:9 v/v), conjugate mass, rt",≥ 543 mg/mL
same,"Solubility in EtOH:Water (1:9 v/v), as Remdesivir RHa-1","Solubility studies; EtOH:Water (1:9 v/v), expressed as Remdesivir RHa-1",≥ 107 mg/mL
same,Viscosity at 20° C.,[3],144.2 cP
same,Viscosity at 25° C.,[3],100.6 cP
same,Approx. Time taken for 50% Remdesivir release,[2],~58 h

# From patent publication US20230263900A1, “DENDRIMER-DRUG CONJUGATE” (priority 2020, published 2023)
